“Also recorded” adds a separate entry of the source. Counter-ions that a name gives are not always drawn.
Columns and labels:
[1] = numerous studies; cited from earlier work
[2] = system: tubulin; conditions: mechanism of action, Horwitz; cited from earlier work
[3] = a number of test systems; cited from earlier work
[4] = system: B16 Melanoma; assay: Antitumor activity in the B16 melanoma system (NCI screen); conditions: B16, Q01D × 09
Experimental: (§1) Another approach to make basic derivatives is based on the concept of taking an existing hydrolysable derivative and further modifying it to form a derivative that allows for stepwise hydrolysis.
Antitumor Activity in the B16 Melanoma System^a
(§2) ^a Screening was carried out under the auspices of the National Cance
(§3) Institute. For detailed explanations of procedures and data, see
(§4) Instruction 14, Screening Data Summary Interpretation and Outline of
(§5) Current Screen, Drug Evaluation Branch, Developmental Therapeutics
(§6) Program, Division of Cancer Treatment, National Cancer Institute,
(§7) Bethesda, Maryland 20892.
(§8) ^b Q01D × 09. Single dose for 9 days; given in milligrams per
(§9) kilogram body weight per injection.
(§10) ^c Abbreviations: survivors day 4, live animals on the fourth day of
(§11) testing/total animal; wt diff, g (T - C), the difference in body weight i
(§12) grams between test and control animals; % T/C, the median lifetime of tes
(§13) animals divided by the median lifetime of control animals, times 100; for
(§14) the solid tumor system % T/C is 100 × (change in treated tumor wt 1
(§15) day 11 - day 0)/change in control tumor wt.) if the tumor grows or 100
(§16) × (change in treated tumor wt./initial treated tumor wt.) if the
(§17) tumor regresses; cures, number of live animals on the last day of
(§18) evaluation for the B16 melanoma system (day 60) or number of animals
(§19) without measurable tumor on day 11 for the MX1 mammary tumor system.

[5] = water; background statement; cited from earlier work
[6] = system: Human MX-1 Mammary Tumor Xenograft; assay: Human MX-1 mammary tumor xenograft (3MBG5) assay; conditions: MX-1 xenograft; for % T/C (tumor weight change): day 11
Experimental: as §1, §2, §3, §4, §5, §6, §7, §8, §9, §10, §11, §12, §13, §14, §15, §16, §17, §18, §19

[7] = Aqueous solubility; conditions: water

CC(=O)O[C@H]1C(=O)[C@@]2(C)[C@H]([C@H](OC(=O)c3ccccc3)[C@]3(O)C[C@H](OC(=O)[C@H](O)[C@@H](NC(=O)c4ccccc4)c4ccccc4)C(C)=C1C3(C)C)[C@]1(OC(C)=O)CO[C@@H]1C[C@@H]2O [Taxol, taxol]
cytotoxicity (in words) [1]: highly cytotoxic | promotion of tubulin assembly (in words) [2]: promoting tubulin assembly into stable aggregated structures which resist depolymerization by dilution, calcium ion, cold, and a number of microtubule-disrupting drugs | in vivo activity (in words) [3]: strong in vivo activity | % T/C (median lifetime) ([4]; 5 mg/kg per injection): 175% | Survivors Day 4 ([4]; 5 mg/kg per injection): 10/10 | WT Diff, g (T - C) ([4]; 5 mg/kg per injection): -0.2 g | % T/C (median lifetime) ([4]; 10 mg/kg per injection): 139% | Survivors Day 4 ([4]; 10 mg/kg per injection): 10/10 | WT Diff, g (T - C) ([4]; 10 mg/kg per injection): 0 g | % T/C (median lifetime) ([4]; 20 mg/kg per injection): 96% | Survivors Day 4 ([4]; 20 mg/kg per injection): 10/10 | WT Diff, g (T - C) ([4]; 20 mg/kg per injection): -0 g | % T/C (median lifetime) ([4]; 40 mg/kg per injection): TOXIC | Survivors Day 4 ([4]; 40 mg/kg per injection): 10/10 | WT Diff, g (T - C) ([4]; 40 mg/kg per injection): -1.2 g | aqueous solubility of taxol (in words) [5]: essentially insoluble in water; also recorded: extremely low aqueous solubility

CC(=O)O[C@H]1C(=O)[C@@]2(C)[C@H]([C@H](OC(=O)c3ccccc3)[C@]3(O)C[C@H](OC(=O)[C@H](OC(=O)CCCC(=O)NCCCN(C)C)[C@@H](NC(=O)c4ccccc4)c4ccccc4)C(C)=C1C3(C)C)[C@]1(OC(C)=O)CO[C@@H]1C[C@@H]2O [Example 25, HCl-Salt]
Survivors Day 4 ([6]; 2.5 mg/kg per injection): 6/6 | WT Diff, g (T - C) ([6]; 2.5 mg/kg per injection): -0.6 g | % T/C (tumor weight change) ([6]; 2.5 mg/kg per injection): 22% | Survivors Day 4 ([6]; 5 mg/kg per injection): 6/6 | WT Diff, g (T - C) ([6]; 5 mg/kg per injection): 0.1 g | % T/C (tumor weight change) ([6]; 5 mg/kg per injection): 1% | Survivors Day 4 ([6]; 10 mg/kg per injection): 6/6 | WT Diff, g (T - C) ([6]; 10 mg/kg per injection): -2.2 g | % T/C (tumor weight change) ([6]; 10 mg/kg per injection): 1% | Survivors Day 4 ([6]; 20 mg/kg per injection): 5/6 | WT Diff, g (T - C) ([6]; 20 mg/kg per injection): 0.3 g | cures (animals without measurable tumor on day 11) ([6]; 20 mg/kg per injection): 5 | % T/C (tumor weight change) ([6]; 20 mg/kg per injection, negative = regression): -100% | Survivors Day 4 ([6]; 40 mg/kg per injection): 5/6 | WT Diff, g (T - C) ([6]; 40 mg/kg per injection): -5.9 g | cures (animals without measurable tumor on day 11) ([6]; 40 mg/kg per injection): 5 | % T/C (tumor weight change) ([6]; 40 mg/kg per injection, negative = regression): -100% | % T/C (median lifetime) ([4]; 1.2 mg/kg per injection): 123% | Survivors Day 4 ([4]; 1.2 mg/kg per injection): 10/10 | WT Diff, g (T - C) ([4]; 1.2 mg/kg per injection): -0.1 g | % T/C (median lifetime) ([4]; 2.5 mg/kg per injection): 129% | Survivors Day 4 ([4]; 2.5 mg/kg per injection): 10/10 | WT Diff, g (T - C) ([4]; 2.5 mg/kg per injection): -0.1 g | % T/C (median lifetime) ([4]; 5 mg/kg per injection): 188% | Survivors Day 4 ([4]; 5 mg/kg per injection): 10/10 | WT Diff, g (T - C) ([4]; 5 mg/kg per injection): 0.1 g | % T/C (median lifetime) ([4]; 10 mg/kg per injection): 352% | Survivors Day 4 ([4]; 10 mg/kg per injection): 10/10 | WT Diff, g (T - C) ([4]; 10 mg/kg per injection): -0.1 g | cures (live animals day 60) ([4]; 10 mg/kg per injection): 5 | % T/C (median lifetime) ([4]; 20 mg/kg per injection): 352% | Survivors Day 4 ([4]; 20 mg/kg per injection): 10/10 | WT Diff, g (T - C) ([4]; 20 mg/kg per injection): 0 g | cures (live animals day 60) ([4]; 20 mg/kg per injection): 6 | aqueous solubility (in words) [7]: good solubility | solubility [7]: ~10000 µg/mL

Source: patent US5157049A, “Method of treating cancers sensitive to treatment with water soluble derivatives of taxol” (The United States of America as represented by the …, priority 1991, dated 1992)
